{
  "source": "paper PMC10675646",
  "about": "(Viruses, 2023)",
  "molecular_target": "T1, 6xHis-SUMO-TRAF2 (residues 315–501) TRAF-C domain (Homo sapiens, UniProt Q12933)",
  "T1 sequence (Q12933 315-501)": "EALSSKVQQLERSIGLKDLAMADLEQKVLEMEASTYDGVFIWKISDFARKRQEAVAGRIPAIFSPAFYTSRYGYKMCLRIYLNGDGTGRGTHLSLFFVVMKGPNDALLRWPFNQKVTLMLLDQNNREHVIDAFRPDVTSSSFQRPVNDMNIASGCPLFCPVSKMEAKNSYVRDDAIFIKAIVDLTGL",
  "assay": "Fluorescence polarization (FP) binding assay, TRAF2 TRAF-C domain",
  "settings": "summary range stated for TRAF2 and TRAF3 TRAF-C together, read-out: Binding affinities between the PIQAS peptide and SUMO-TRAF-C proteins (range)",
  "note": "Where a SMILES comes first, the peptide text is derived from it. The star is where a group is joined. 5FAM = O=C1OC2(c3ccc(O)cc3Oc3cc(O)ccc32)c2ccc(C(=O)*)cc21; Ahx = NCCCCCC(=O)O",
  "data": [
    {"smiles": "CC[C@H](C)[C@H](NC(=O)[C@@H]1CCCN1C(=O)CCCCCNC(=O)c1ccc2c(c1)C(=O)OC21c2ccc(O)cc2Oc2cc(O)ccc21)C(=O)N[C@@H](CCC(N)=O)C(=O)N[C@@H](C)C(=O)N[C@@H](CO)C(N)=O", "note": "[PIQAS peptide] ({5FAM-Ahx}-PIQAS-NH2)", "values": [
      {"measurement": "Kd", "value": "150 to 200", "unit": "µM"}
    ]}
  ]
}
